In patent publication EP0528172A1, “(2-Alkyl-3-pyridyl)methylpiperazine derivatives as PAF antagonists” (J. URIACH & CIA. S.A., priority 1991, dated 1993) one finds IC50, ED50 and ID₅₀ data, which are given here for 24 molecules.

Read-outs that look alike come from different tables or passages of the source.

For experiment [1], the system named is platelet aggregation induced by PAF. Briefly: Inhibition of platelet aggregation induced by PAF (platelet rich plasma, Born nephelometric technique). It counts as cell-based, New Zealand albino rabbits. The settings on record: rabbit platelet rich plasma, PAF C₁₈ 16 nM final, concentration needed to inhibit platelet aggregation in a 50%, read-out: IC₅₀. On the procedure:
Inhibition of platelet aggregation induced by PAF.
The blood is obtained by cardiac puncture of male New Zealand albino rabbits (between 2 and 2.5 Kg of weight) and coagulation is prevented by adding 1 part of 3.16% sodium citrate dihydrate in 9 parts of blood. The platelet rich plasma (PRP) is prepared by blood centrifugation at 250xg for 10 min. at 4°C and it is diluted with platelet poor plasma (PPP) obtained by additional centrifugation at 3000xg for 10 min. The amount of platelets is adjusted to […]. The platelet aggregation induced by PAF (C₁₈, prepared in our laboratory) (16 nM, final) is determined by the Born nephelometric technique (J. Physiol., 1962, 162, 67) using an aggregometer Chrono-log 500. The activities of the inhibitors are expressed as IC₅₀ values, that is to say the concentration of the drug needed to inhibit the platelet aggregation in a 50%.

The subject of experiment [2] is hypotension induced by PAF. Briefly: Inhibition of the hypotensive effect induced by PAF in normotense rats. The settings on record: for ED50: Rattus norvegicus, iv, read-out: ID₅₀. Format: in vivo, Sprage Dawley rats. On the procedure: Inhibition of the hypotensive effect induced by PAF in normotense rats.
Male Sprage Dawley rats, of 180-220 g of weight, anesthetized with sodium pentobarbital (50 mg/Kg, i.p. 1 mL/100 g) have been used. In order to measure the average arterial pressure, a polyethylene catheter is introduced into the carotid artery. The arterial pressure is recorded with the help of a transducer connected with a R611 Beckman polygraph. The tested compounds are administered through the femoral vein 3 min. before the injection of PAF (0.5 mcg/Kg, i.v.) . The inhibition of the hypotension induced by PAF of the different compounds is expressed as ID₅₀, that is to say, the amount of compound by weight of animal (dose) needed to inhibit the hypotension induced by PAF in a 50%.

Experiment [3] relates to mortality induced by PAF. Briefly: Mortality induced by PAF in mice (p.o.). Format: in vivo, Swiss mice. Particulars: Mus musculus, oral administration 1 h before 100 mcg/kg PAF-C₁₈ + 1 mg/kg propanolol i.v., examined 2 h after PAF, dose inhibiting mortality in a 50%, read-out: ID₅₀. Here is the method: Mortality induced by PAF in mice (p.o.).
This test was performed according to the procedure described by Young et al. (Prostaglandins, 1985, 30, 545-551). Groups of 10 Swiss mice weighing from 22 to 26 g were used. 100 mcg/kg of PAF-C₁₈ and 1 mg/kg of propanolol were administered through a lateral tail vein 1 h after the oral administration of the compounds to be tested (20 mL/kg). Animals were examined 2 h after the injection of PAF. The percentage of the inhibition of the mortality induced by PAF was determined for all the tested compounds in comparison with the control group. The results are expressed as ID₅₀ values, that is to say, the amount of compound by weight of animal (dose) needed to inhibit the mortality induced by PAF in a 50%.

Setting [4] is: anesthetized male rats, compound via femoral vein 3 min before PAF (0.5 mcg/Kg, i.v.), dose inhibiting PAF hypotension in a 50%.

On to `COC(=O)NC(CC(=O)N1CCN(C(C#N)c2cccnc2C)CC1)c1ccccc1` (stereo not drawn) [Compound 41, 1-[3-(N-(Methoxycarbonyl)amino)-3-phenylpropionyl]-4-[(2-methyl-3-pyridyl)cyanomethyl]piperazine], for which, in experiment [1] (Oryctolagus cuniculus), the IC50 was 41 nM. The ED50 in experiment [2] (setting [4]) amounted to 0.015 mg/kg; in experiment [3] it was 0.044 mg/kg.
Take `CNC(=O)N(O)C(CC(=O)N1CCN(C(C#N)c2cccnc2C)CC1)c1ccccc1` (stereo not drawn) [Compound 77, 1-[3-(N-methylcarbamoyl-N-hydroxyamino)-3-phenylpropionyl]-4-[(2-methyl-3-pyridyl)cyanomethyl]piperazine]: in experiment [1] (Oryctolagus cuniculus), the IC50 amounted to 3000 nM. Also, the ED50 in experiment [2] (setting [4]) came out at 0.045 mg/kg.
In the case of `CC(=O)NC(CC(=O)N1CCN(C(C#N)c2cccnc2C)CC1)c1ccccc1` (stereo not drawn) [Compound 17, 1-[3-(N-acetylamino)-3-phenylpropionyl]-4-[(2-methyl-3-pyridyl)cyanomethyl]piperazine], the IC50 in experiment [1] (Oryctolagus cuniculus) came out at 38 nM. Also, the values for the ED50 in experiment [2] (setting [4]) and in experiment [3] were 0.035 mg/kg and 0.09 mg/kg, respectively.
As for `Cc1ncccc1C(C#N)N1CCN(C(=O)CC(NCc2ccccc2)c2ccccc2)CC1` (stereo not drawn) [Compound 15, 1-[3-(N-Benzylamino)-3-phenylpropionyl]-4-[(2-methyl-3-pyridyl)cyanomethyl]piperazine], the IC50 in experiment [1] (Oryctolagus cuniculus) stood at 9.1 nM. Also, the ED50 in experiment [2] (setting [4]) amounted to 0.035 mg/kg; in experiment [3] it was 1.2 mg/kg.
Take `Cc1ncccc1C(C#N)N1CCN(C(=O)CC(NC(=O)N(C)O)c2ccccc2)CC1` (stereo not drawn) [Compound 78, 1-[3-(N-(N'-hydroxy-N'-methylcarbamoyl)amino)-3-phenylpropionyl]-4-[(2-methyl-3-pyridyl)cyanomethyl]piperazine]: in experiment [1], the IC50 amounted to 82 nM. In experiment [2] (setting [4]), this molecule displayed an ID₅₀ of 0.055 mg/Kg i.v.
As to `Cc1ncccc1C(C#N)N1CCN(C(=O)CC(c2ccccc2)c2ccccc2)CC1.Cl.Cl` (stereo not drawn) [Compound 1, 1-(3,3-Diphenylpropionyl)-4-[(2-methyl-3-pyridyl)cyanomethyl]piperazine, dihydrochloride], in experiment [1] (Oryctolagus cuniculus), the IC50 is 18 nM. Further, the ED50 in experiment [2] (setting [4]) was 0.015 mg/kg.
Take `Cc1ncccc1C(C#N)N1CCN(C(=O)[C@H](C)NC(c2ccccc2)c2ccccc2)CC1` (stereo partly drawn) [Compound 28, 1-[(S)-2-(N-(Diphenylmethyl)amino)propionyl]-4-[(2-methyl-3-pyridyl)cyanomethyl]piperazine]: the IC50 in experiment [1] (Oryctolagus cuniculus) is 13 nM. In addition, the ED50 came to 0.025 mg/kg in experiment [2] (setting [4]) and 1.6 mg/kg in experiment [3].
With `Cc1ncccc1C(C#N)N1CCN(C(=O)CC(c2ccccc2)N(O)C(N)=O)CC1` (stereo not drawn) [Compound 76, 1-[3-(N-carbamoyl-N-hydroxyamino)-3-phenylpropionyl]-4-[(2-methyl-3-pyridyl)cyanomethyl]piperazine], the IC50 in experiment [1] (Oryctolagus cuniculus) was found to be 69 nM.
As for `Cc1ncccc1C(C#N)N1CCN(C(=O)CCNC(c2ccccc2)c2ccccc2)CC1` (stereo not drawn) [Compound 34, 1-[3-(N-(Diphenylmethyl)amino)propionyl]-4-[(2-methyl-3-pyridyl)cyanomethyl]piperazine], the IC50 in experiment [1] (Oryctolagus cuniculus) is 110 nM. The values for the ED50 in experiment [2] (setting [4]) and in experiment [3] were 0.044 mg/kg and 0.62 mg/kg, respectively.
Consider `Cc1ncccc1C(C#N)N1CCN(C(=O)CC(NC(=O)c2cccnc2)c2ccccc2)CC1` (stereo not drawn) [Compound 60, 1-[3-(N-(3-pyridylcarbonyl)amino)-3-phenylpropionyl]-4-[(2-methyl-3-pyridyl)cyanomethyl]piperazine], for which the IC50 in experiment [1] (Oryctolagus cuniculus) came to 8.9 nM. For the same molecule, the ED50 came out at 0.029 mg/kg in experiment [2] (setting [4]) and 0.41 mg/kg in experiment [3].
For `Cc1ncccc1C(C#N)N1CCN(C(=O)CC(Nc2ccccc2)c2ccccc2)CC1` (stereo not drawn) [Compound 74, 1-[3-(N-phenylamino)-3-phenylpropionyl]-4-[(2-methyl-3-pyridyl)cyanomethyl]piperazine] the same measures were 28 nM, 0.042 mg/kg and 0.27 mg/kg.
For the molecule `Cc1ncccc1C(C#N)N1CCN(C(=O)COC(c2ccccc2)c2ccccc2)CC1` (stereo not drawn) [Compound 36, 1-[(Diphenylmethoxy)acetyl]-4-[(2-methyl-3-pyridyl)cyanomethyl]piperazine], in experiment [1] (Oryctolagus cuniculus), the IC50 was found to be 42 nM. In addition, the ED50 in experiment [2] (setting [4]) worked out at 0.048 mg/kg.
For `Cc1ncccc1C(C#N)N1CCN(C(=O)CC(NC(=O)c2ccccc2)c2ccccc2)CC1` (stereo not drawn) [Compound 16, 1-[3-(N-Benzoylamino)-3-phenylpropionyl]-4-[(2-methyl-3-pyridyl)cyanomethyl]piperazine] the same measures were 9.1 nM and 0.056 mg/kg.
In the case of `Cc1ncccc1C(C#N)N1CCN(C(=O)CC(O)(c2ccccc2)C(F)(F)F)CC1` (stereo not drawn) [Compound 11, 1-(3-Phenyl-3-hydroxy-3-(trifluoromethyl)propionyl)-4-[(2-methyl-3-pyridyl)cyanomethyl]piperazine], the IC50 in experiment [1] (Oryctolagus cuniculus) was 14 nM. Besides, the ED50 in experiment [2] (setting [4]) was 0.013 mg/kg; in experiment [3], 0.44 mg/kg.
For the molecule `Cc1ncccc1C(C#N)N1CCN(C(=O)CC(C)(O)c2ccccc2)CC1` (stereo not drawn) [Compound 9, 1-(3-Phenyl-3-hydroxybutanoyl)-4-[(2-methyl-3-pyridyl)cyanomethyl]piperazine], the IC50 in experiment [1] (Oryctolagus cuniculus) stood at 36 nM.
On to `Cc1ncccc1C(C#N)N1CCN(C(=O)CC(c2ccccc2)N2CCOC2=O)CC1` (stereo not drawn) [Compound 68, 1-[3-(2-oxo-3-oxazolidinyl)-3-phenylpropionyl]-4-[(2-methyl-3-pyridyl)cyanomethyl]piperazine], for which the IC50 in experiment [1] (Oryctolagus cuniculus) is 63 nM. Further, the ED50 in experiment [2] (setting [4]) is 0.029 mg/kg; in experiment [3], 0.3 to 1 mg/kg.
As for `Cc1ncccc1C(C#N)N1CCN(C(=O)C=C(c2ccccc2)c2ccccc2)CC1` (stereo not drawn) [Compound 5, 1-(3,3-Diphenylpropenoyl)-4-[(2-methyl-3-pyridyl)cyanomethyl]piperazine], the IC50 in experiment [1] (Oryctolagus cuniculus) came to 26 nM. The ED50 in experiment [2] (setting [4]) turned out to be 0.038 mg/kg.
For the molecule `Cc1ncccc1C(C#N)N1CCN(C(=O)CCC(c2ccccc2)c2ccccc2)CC1` (stereo not drawn) [Compound 18, 1-(4,4-Diphenylbutanoyl)-4-[(2-methyl-3-pyridyl)cyanomethyl]piperazine], the IC50 in experiment [1] (Oryctolagus cuniculus) came to 80 nM. Besides, the ED50 in experiment [2] (setting [4]) stood at 0.028 mg/kg.
For the molecule `Cc1ncccc1C(C#N)N1CCN(C(=O)CC(c2ccccc2)N2CCCC2=O)CC1` (stereo not drawn) [Compound 66, 1-[3-(2-oxo-1-pyrrolidinyl)-3-phenylpropionyl]-4-[(2-methyl-3-pyridyl)cyanomethyl]piperazine], the IC50 in experiment [1] (Oryctolagus cuniculus) amounted to 29 nM. The figures for the ED50 in experiment [2] (setting [4]) and in experiment [3] were 0.026 mg/kg and 0.13 mg/kg, respectively.
Turning to `Cc1ncccc1C(C#N)N1CCN(C(=O)CC(NC(=O)Oc2ccccc2)c2ccccc2)CC1` (stereo not drawn) [Compound 44, 1-[3-(N-(Phenoxycarbonyl)amino)-3-phenylpropionyl]-4-[(2-methyl-3-pyridyl)cyanomethyl]piperazine], the IC50 in experiment [1] (Oryctolagus cuniculus) came to 16 nM. For the same molecule, the ED50 in experiment [2] stood at 0.036 mg/kg.
As for `CC(=O)N(O)C(CC(=O)N1CCN(C(C#N)c2cccnc2C)CC1)c1ccccc1` (stereo not drawn) [Compound 75, 1-[3-(N-acetyl-N-hydroxyamino)-3-phenylpropionyl]-4-[(2-methyl-3-pyridyl)cyanomethyl]piperazine], the IC50 in experiment [1] (Oryctolagus cuniculus) was found to be 62 nM. Besides, the ED50 in experiment [2] (setting [4]) was 0.027 mg/kg; in experiment [3] it was 0.061 mg/kg.
Regarding `CCOC(=O)NC(CC(=O)N1CCN(C(C#N)c2cccnc2C)CC1)c1ccccc1` (stereo not drawn) [Compound 42, 1-[3-(N-(Ethoxycarbonyl)amino)-3-phenylpropionyl]-4-[(2-methyl-3-pyridyl)cyanomethyl]piperazine], in experiment [1] (Oryctolagus cuniculus), the IC50 came to 14 nM. Also, the ED50 was found to be 0.025 mg/kg in experiment [2] (setting [4]) and 0.23 mg/kg in experiment [3].
For the molecule `Cc1ncccc1C(C#N)N1CCN(C(=O)CNC(c2ccccc2)c2ccccc2)CC1` (stereo not drawn) [Compound 22, 1-[N-(Diphenylmethyl)aminoacetyl]-4-[(2-methyl-3-pyridyl)cyanomethyl]piperazine], the IC50 in experiment [1] (Oryctolagus cuniculus) came out at 85 nM. Besides, the results for the ED50 in experiment [2] (setting [4]) and in experiment [3] were 0.021 mg/kg and 0.3 mg/kg, respectively.
For `Cc1ncccc1C(C#N)N1CCN(C(=O)CC(O)(c2ccccc2)c2ccccc2)CC1` (stereo not drawn) [Compound 4, 1-(3,3-Diphenyl-3-hydroxypropionyl)-4-[(2-methyl-3-pyridyl)cyanomethyl]piperazine] the same measures were 17 nM, 0.039 mg/kg and 0.69 mg/kg.
